Measurements as given in publication PMC8781988, “Phloroglucinol as a Potential Candidate against Trypanosoma congolense Infection: Insights from In Vivo, In Vitro, Molecular Docking and Molecular Dynamic Simulation Analyses” (Molecules, 2022).

Target: T1, T. congolense sialidase (EC 3.2.1.18)
T1 construct: native bloodstream-form enzyme, isolated and partially purified on a DEAE cellulose column
Test: enzyme inhibition kinetics (fetuin substrate, thiobarbituric acid assay, double reciprocal plot) with partially purified enzyme
Format: biochemical, Trypanosoma congolense

Oc1cc(O)cc(O)c1 [phloroglucinol] gave a Ki of 181 nM.
